Data as given in US9822105B2, “Diaminotriazine compounds as herbicides” (BASF SE, priority 2014, dated 2017).

Key:
[1] = tested on: ECHCG; assay: Greenhouse test, pre-emergence treatment; format: in vivo, Echinocloa crus-galli
Description: (§1) The seeds of the test plants were sown separately for each species. For the pre-emergence treatment, the active ingredients, which had been suspended or emulsified in water, were applied directly after sowing by means of finely distributing nozzles. The containers were irrigated gently to promote germination and growth and subsequently covered with transparent plastic hoods until the plants had rooted. This cover caused uniform germination of the test plants, unless this had been impaired by the active ingredients. Depending on the species, the plants were kept at 10-25° C. or 20-35° C., respectively. The test period extended over 2 to 4 weeks. During this time, the plants were tended, and their response to the individual treatments was evaluated. Evaluation was carried out using a scale from 0 to 100. 100 means no emergence of the plants, or complete destruction of at least the aerial moieties, and 0 means no damage, or normal course of growth. […] The plants used in the greenhouse experiments were of the following species: [table]

[2] = tested on: AMARE; assay: Greenhouse test, pre-emergence treatment; format: in vivo, Amaranthus retroflexus; details: for pest or weed control at 250 g/ha / pest or weed control at 125 g/ha / pest or weed control at 500 g/ha: Amaranthus retroflexus; for pest or weed control at 250 g/ha: read-out: herbicidal activity, 250 g/ha; for pest or weed control at 125 g/ha: read-out: herbicidal activity, 125 g/ha; for pest or weed control at 500 g/ha: read-out: herbicidal activity, 500 g/ha
Description: as §1

[3] = tested on: ABUTH; assay: Greenhouse test, pre-emergence treatment; format: in vivo, Abutilon theophrasti
Description: as §1

[4] = tested on: SETFA; assay: Greenhouse test, pre-emergence treatment; format: in vivo, Setaria faberi
Description: as §1

[5] = tested on: ALOMY; assay: Greenhouse test, pre-emergence treatment; format: in vivo, Alopecurus myosuroides; details: 0.5 kg/ha
Description: as §1

[6] = tested on: AMARE; assay: Greenhouse test, post-emergence treatment; format: in vivo, Amaranthus retroflexus; details: 500 g/ha
Description: The seeds of the test plants were sown separately for each species. For the post-emergence treatment, the test plants were first grown to a height of […], depending on the plant habit, and only then treated with the active ingredients which had been suspended or emulsified in water. For this purpose, the test plants were either sown directly and grown in the same containers, or they were first grown separately as seedlings and transplanted into the test containers a few days prior to treatment. Depending on the species, the plants were kept at 10-25° C. or 20-35° C., respectively. The test period extended over 2 to 4 weeks. During this time, the plants were tended, and their response to the individual treatments was evaluated. Evaluation was carried out using a scale from 0 to 100. 100 means no emergence of the plants, or complete destruction of at least the aerial moieties, and 0 means no damage, or normal course of growth. […] The plants used in the greenhouse experiments were of the following species: [table]

SMILES: CC1Oc2ccc(Cl)c(Nc3nc(N)nc(C(C)(C)F)n3)c2O1 (racemic) [Example 12]
- herbicidal activity ([1]; 250 g/ha): very good (a very good herbicidal activity is given at values of at least 85)
- herbicidal activity ([2]; 250 g/ha): very good (a very good herbicidal activity is given at values of at least 85)
- herbicidal activity ([3]; 250 g/ha): very good (a very good herbicidal activity is given at values of at least 85)

SMILES: CCC(C)c1nc(N)nc(Nc2c(F)ccc3c2OCO3)n1 (racemic) [Example 16]
- herbicidal activity ([2]; 125 g/ha): very good (a very good herbicidal activity is given at values of at least 85)
- herbicidal activity ([3]; 125 g/ha): good (a good herbicidal activity is given at values of at least 70)

SMILES: CC1CCCN1c1nc(N)nc(Nc2c(F)ccc3c2OCO3)n1 (racemic) [Example 19]
- herbicidal activity ([2]; 500 g/ha): very good (a very good herbicidal activity is given at values of at least 85)

SMILES: COC(C)c1nc(N)nc(Nc2c(F)ccc3c2OCO3)n1 (racemic) [Example 32]
- herbicidal activity ([2]; 125 g/ha): good (a good herbicidal activity is given at values of at least 70)
- herbicidal activity ([3]; 125 g/ha): good (a good herbicidal activity is given at values of at least 70)

SMILES: CCC(F)c1nc(N)nc(Nc2c(F)ccc3c2OCO3)n1 (racemic) [Example 33]
- herbicidal activity ([2]; 125 g/ha): very good (a very good herbicidal activity is given at values of at least 85)

SMILES: CC1Oc2ccc(F)c(Nc3nc(N)nc(C(C)(C)F)n3)c2O1 (single isomer, unassigned) [Example 7]
- herbicidal activity ([4]; 250 g/ha, SETFA): very good (a very good herbicidal activity is given at values of at least 85)
- herbicidal activity ([2]; 250 g/ha): very good (a very good herbicidal activity is given at values of at least 85)
- herbicidal activity ([3]; 250 g/ha): very good (a very good herbicidal activity is given at values of at least 85)

SMILES: CC1Oc2ccc(F)c(Nc3nc(N)nc(C(C)(C)F)n3)c2O1 (single isomer, unassigned) [Example 8]
- herbicidal activity ([4]; 250 g/ha, SETFA): very good (a very good herbicidal activity is given at values of at least 85)
- herbicidal activity ([2]; 250 g/ha): very good (a very good herbicidal activity is given at values of at least 85)
- herbicidal activity ([3]; 250 g/ha): very good (a very good herbicidal activity is given at values of at least 85)

SMILES: CC1Oc2ccc(F)c(Nc3nc(N)nc(C(C)(C)F)n3)c2O1 (single isomer, unassigned) [Example 35]
- herbicidal activity ([1]; 250 g/ha): very good (a very good herbicidal activity is given at values of at least 85)

SMILES: CC(C)(F)c1nc(N)nc(Nc2c(Cl)ccc3c2OCO3)n1 [Example 2]
- herbicidal activity [5]: very good (a very good herbicidal activity is given at values of at least 85)
- herbicidal activity ([4]; 0.5 kg/ha, SETFA): very good (a very good herbicidal activity is given at values of at least 85)
- herbicidal activity ([2]; 0.5 kg/ha): very good (a very good herbicidal activity is given at values of at least 85)

SMILES: CC(C)(F)c1nc(N)nc(Nc2c(Br)c(Br)cc3c2OCO3)n1 [Example 4]
- herbicidal activity ([3]; 125 g/ha): good (a good herbicidal activity is given at values of at least 70)

SMILES: Nc1nc(Nc2c(F)ccc3c2OCO3)nc(C2(Cl)CCC2)n1 [Example 5]
- herbicidal activity ([1]; 250 g/ha): very good (a very good herbicidal activity is given at values of at least 85)
- herbicidal activity ([4]; 250 g/ha, SETFA): very good (a very good herbicidal activity is given at values of at least 85)
- pest or weed control at 250 g/ha [2]: ≥ 85%

SMILES: Nc1nc(Nc2c(Br)ccc3c2OC(F)(F)O3)nc(C2(Cl)CCCC2)n1 [Example 9]
- herbicidal activity [6]: very good (a very good herbicidal activity is given at values of at least 85)

SMILES: CC1(C)Oc2ccc(Cl)c(Nc3nc(N)nc(C(C)(C)F)n3)c2O1 [Example 11]
- herbicidal activity ([1]; 250 g/ha): very good (a very good herbicidal activity is given at values of at least 85)
- herbicidal activity ([2]; 250 g/ha): very good (a very good herbicidal activity is given at values of at least 85)
- herbicidal activity ([3]; 250 g/ha): very good (a very good herbicidal activity is given at values of at least 85)

SMILES: CC1(C)Oc2ccc(F)c(Nc3nc(N)nc(C(C)(C)F)n3)c2O1 [Example 14]
- herbicidal activity ([1]; 250 g/ha): very good (a very good herbicidal activity is given at values of at least 85)
- herbicidal activity ([2]; 250 g/ha): very good (a very good herbicidal activity is given at values of at least 85)
- herbicidal activity ([3]; 250 g/ha): very good (a very good herbicidal activity is given at values of at least 85)

SMILES: Nc1nc(Nc2c(F)ccc3c2OCO3)nc(C2(F)CCCC2)n1 [Example 15]
- herbicidal activity ([4]; 250 g/ha, SETFA): very good (a very good herbicidal activity is given at values of at least 85)
- herbicidal activity ([2]; 250 g/ha): very good (a very good herbicidal activity is given at values of at least 85)
- herbicidal activity ([3]; 250 g/ha): very good (a very good herbicidal activity is given at values of at least 85)

SMILES: CC(C)c1nc(N)nc(Nc2c(F)ccc3c2OCO3)n1 [Example 17]
- pest or weed control at 125 g/ha [2]: ≥ 85%
- herbicidal activity ([3]; 125 g/ha): good (a good herbicidal activity is given at values of at least 70)

SMILES: Nc1nc(Nc2c(F)ccc3c2OCO3)nc(N2CCCC2)n1 [Example 20]
- pest or weed control at 500 g/ha [2]: ≥ 85%

SMILES: COC1(c2nc(N)nc(Nc3c(F)ccc4c3OCO4)n2)CCCCC1 [Example 23]
- herbicidal activity ([1]; 125 g/ha): good (a good herbicidal activity is given at values of at least 70)
- herbicidal activity ([4]; 125 g/ha, SETFA): good (a good herbicidal activity is given at values of at least 70)
- pest or weed control at 125 g/ha [2]: ≥ 85%

SMILES: CC(C)(C)Cc1nc(N)nc(Nc2c(F)ccc3c2OCO3)n1 [Example 24]
- herbicidal activity ([1]; 125 g/ha): very good (a very good herbicidal activity is given at values of at least 85)
- herbicidal activity ([2]; 125 g/ha): very good (a very good herbicidal activity is given at values of at least 85)
- herbicidal activity ([3]; 125 g/ha): very good (a very good herbicidal activity is given at values of at least 85)

SMILES: CON(C)c1nc(N)nc(Nc2c(F)ccc3c2OCO3)n1 [Example 25]
- herbicidal activity ([2]; 500 g/ha): very good (a very good herbicidal activity is given at values of at least 85)

SMILES: CC(C)Cc1nc(N)nc(Nc2c(F)ccc3c2OCO3)n1 [Example 26]
- herbicidal activity ([1]; 125 g/ha): good (a good herbicidal activity is given at values of at least 70)
- herbicidal activity ([4]; 125 g/ha, SETFA): good (a good herbicidal activity is given at values of at least 70)
- herbicidal activity ([2]; 125 g/ha): very good (a very good herbicidal activity is given at values of at least 85)

SMILES: Nc1nc(Nc2c(F)ccc3c2OCO3)nc(C2CCCCC2)n1 [Example 27]
- herbicidal activity ([4]; 125 g/ha, SETFA): good (a good herbicidal activity is given at values of at least 70)
- pest or weed control at 125 g/ha [2]: ≥ 85%

SMILES: Nc1nc(Nc2c(F)ccc3c2OCO3)nc(C2CCCC2)n1 [Example 28]
- herbicidal activity ([1]; 125 g/ha): good (a good herbicidal activity is given at values of at least 70)
- pest or weed control at 125 g/ha [2]: ≥ 85%

SMILES: CC(C)(C)c1nc(N)nc(Nc2c(F)ccc3c2OCO3)n1 [Example 29]
- herbicidal activity ([1]; 125 g/ha): very good (a very good herbicidal activity is given at values of at least 85)
- pest or weed control at 125 g/ha [2]: ≥ 85%
- herbicidal activity ([3]; 125 g/ha): very good (a very good herbicidal activity is given at values of at least 85)

SMILES: CC(C)(F)c1nc(N)nc(Nc2c(Cl)c(Cl)cc3c2OCO3)n1 [Example 31]
- herbicidal activity ([1]; 125 g/ha): good (a good herbicidal activity is given at values of at least 70)
- herbicidal activity ([4]; 125 g/ha, STEFTA): very good (a very good herbicidal activity is given at values of at least 85)
- herbicidal activity ([2]; 125 g/ha): very good (a very good herbicidal activity is given at values of at least 85)

SMILES: Cn1c(=O)oc2c(Nc3nc(N)nc(C(C)(C)F)n3)c(F)ccc21 [Example 38]
- herbicidal activity ([2]; 500 g/ha): very good (a very good herbicidal activity is given at values of at least 85)

SMILES: CC(C)(F)c1nc(N)nc(Nc2c(F)ccc3ncoc23)n1 [Example 39]
- pest or weed control at 250 g/ha [2]: ≥ 85%
- herbicidal activity ([3]; 250 g/ha): very good (a very good herbicidal activity is given at values of at least 85)

SMILES: CC(C)(F)c1nc(N)nc(Nc2c(F)ccc3c2CCC3)n1 [Example 41]
- pest or weed control at 500 g/ha [2]: ≥ 85%

SMILES: CC(C)(F)c1nc(N)nc(Nc2c(Cl)ccc3c2OCCO3)n1 [Example 42]
- pest or weed control at 125 g/ha [2]: ≥ 85%

SMILES: CC(C)(F)c1nc(N)nc(Nc2c(F)ccc3c2OCCO3)n1 [Example 43]
- pest or weed control at 500 g/ha [2]: ≥ 85%

SMILES: CC(C)(F)c1nc(N)nc(Nc2c(Cl)ccc3c2OC=CO3)n1 [Example 44]
- herbicidal activity ([1]; 500 g/ha): very good (a very good herbicidal activity is given at values of at least 85)
- pest or weed control at 500 g/ha [2]: ≥ 85%

SMILES: CC(C)(F)c1nc(N)nc(Nc2c(F)ccc3c2OC=CO3)n1 [Example 45]
- pest or weed control at 125 g/ha [2]: ≥ 85%
- herbicidal activity ([3]; 125 g/ha): very good (a very good herbicidal activity is given at values of at least 85)

SMILES: CC(C)(F)c1nc(N)nc(Nc2c(Cl)ccc3c2CCC3)n1 [Example 47]
- herbicidal activity ([1]; 250 g/ha): good (a good herbicidal activity is given at values of at least 70)
- herbicidal activity ([3]; 250 g/ha): good (a good herbicidal activity is given at values of at least 70)
